Patent publication US20260209692A1, “BASAL MEDIUM COMPOSITION FOR ANIMAL CELL CULTURE” (TableMark Co., Ltd., priority 2023, published 2026)

Experiments:
[1] = test system: MDBK cells (established cell line); experiment: Culturability when L-cystine was replaced with L-cysteine, MDBK (Example 9); type: cell-based, bovine; settings: end of third subculture, 0.072 g/L
Procedure: (§1) Cells used: MDBK cells (established cell line), RL34 cells (established cell line), duck liver-derived cells (primary cultured cells)
(§2) Amount of L-cysteine hydrochloride monohydrate added: Since L-cystine is a dimer of L-cysteine, L-cysteine hydrochloride monohydrate was added in an amount twice the number of moles of L-cystine.
(§3) MDBK cells and RL34 cells were each subcultured in a complete medium prepared by adding 1% PSA and 10% FBS to the above basal medium. Duck liver-derived cells were also subcultured in a complete medium prepared by adding 1% PSA and 10% serum to the above basal medium. In both cases, subculture was performed every 3 to 4 days, and subculture was performed up to the third time.

[2] = test system: RL34 cells (established cell line); experiment: Culturability when L-cystine was replaced with L-cysteine, RL34 (Example 9); type: cell-based, rat; settings: RL34, end of third subculture, 0.072 g/L
Procedure: as §1, §2, §3

[3] = test system: duck liver-derived cells (primary cultured cells); experiment: Culturability when L-cystine was replaced with L-cysteine, duck liver-derived cells (Example 9); type: cell-based; settings: end of third subculture, 0.072 g/L
Procedure: as §1, §2, §3

[4] = test system: mouse-derived myoblast cell line C2C12; experiment: Cell culture test of amino acid conditions, C2C12 (Example 1); type: cell-based; settings: C2C12, from condition 19 (1/8 amount) vs condition 20
Procedure: Of the constituents to be contained in Dulbecco's Modified Eagle Medium (DMEM), those excluding amino acids was dissolved in ion-exchanged water to prepare A.A.-IMEM Seven types of yeast extract ([…], and J) shown below were each further added to the A.A.-IMEM Buffer, so that the final concentration in the medium was 1 g/L. Various amino acids required for the proliferation of cultured cells in DMEM were added to “A.A.-IMEM Buffer+yeast extract” according to conditions 1 to 16 in Table 3, and a cell culture test was conducted. […] The amount of each amino acid added was the same as that contained in the formulation of DMEM. In addition, the same amino acid composition as that of DMEM was used as P.C. (positive control), while the same amino acid composition as that of DMEM but with 1⁄8th the amount added was used as condition 19, and that with 1/32nd the amount added was used as condition 20. All reagents used in the experiment were of food additive grade. 10% heat-inactivated fetal bovine serum (FBS) and 1% penicillin-streptomycin-amphotericin (PSA) were further added to A.A.-IMEM Buffer+yeast extract and the amino acids of each condition listed in Table 3, so as to conduct a cell culture test. For the cell culture test, mouse-derived myoblast cell line C2C12 was used. […]

SMILES: Cl.N[C@@H](CS)C(=O)O.O [L-cysteine hydrochloride monohydrate]
- difference in culturability due to replacement of L-cystine [1]: almost no difference in culturability
- difference in culturability due to replacement of L-cystine [2]: almost no difference in culturability
- difference in culturability due to replacement of L-cystine [3]: almost no difference in culturability

SMILES: NC(=O)CC[C@H](N)C(=O)O [L-glutamine]
- amount of amino acid required in the medium [4]: ≥ 74.5 mg/L

SMILES: N[C@@H](CSSC[C@H](N)C(=O)O)C(=O)O [L-cystine]
- amount of amino acid required in the medium [4]: at least 6.13 mg/L
